Measurements: patent publication US20260364184A1, “COMPOUND BASED ON OXOISOINDOLINYL-SUBSTITUTED TETRAHYDROPYRIMIDINE-DIONE AND USE THEREOF” (GLUETACS THERAPEUTICS (SHANGHAI) CO., LTD., priority 2023, published 2026)

Target: T1, IRAK4 (Homo sapiens, UniProt Q9NWZ3)
T1 construct: expression of target proteins in cells; endogenous in cells
T1 sequence (Q9NWZ3 1-460): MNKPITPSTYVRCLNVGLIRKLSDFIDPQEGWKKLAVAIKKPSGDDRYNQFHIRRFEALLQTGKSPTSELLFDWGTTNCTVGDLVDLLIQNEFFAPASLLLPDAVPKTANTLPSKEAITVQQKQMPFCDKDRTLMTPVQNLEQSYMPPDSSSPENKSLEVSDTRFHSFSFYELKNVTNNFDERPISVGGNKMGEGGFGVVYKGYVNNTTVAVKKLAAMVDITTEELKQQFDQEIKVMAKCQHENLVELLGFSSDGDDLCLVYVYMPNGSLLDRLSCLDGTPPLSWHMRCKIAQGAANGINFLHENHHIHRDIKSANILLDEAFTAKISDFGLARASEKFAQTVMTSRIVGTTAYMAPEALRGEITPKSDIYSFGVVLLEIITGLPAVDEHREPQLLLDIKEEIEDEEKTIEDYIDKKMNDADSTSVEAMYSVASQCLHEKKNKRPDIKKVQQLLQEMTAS
Assay: Western blot degradation of IRAK4
Assay type: cell-based
Conditions: hPBMC Cell; 24 hours
Experimental: Conventional Western blot assay was performed to evaluate the effects of the compounds of the present disclosure on the expression of target proteins in cells.
(1) Cell Seeding and Protein Harvesting: The selected cells were processed according to the cell seeding procedure and protein harvesting procedure in Table II-2.
(2) To the collected supernatant, 5×SDS sample loading buffer was added, followed by denaturation at 95 °C for 5 minutes. The denatured samples were then separated by SDS-PAGE electrophoresis on a polyacrylamide gel. Proteins were transferred to a nitrocellulose membrane (0.45 μm NC membrane), blocked with blocking buffer at room temperature for 1 hour, and subjected to antibody incubation and development procedures according to the antibody manufacturer's instructions (Cell Signaling Technology).
Half-Maximal Degradation Concentration value (the drug concentration required for degrading proteins by 50%, abbreviated as DC50) reads method: comparing the grayscale values of Western blot bands from drug-treated samples with those from blank DMSO-treated controls, and identifying the drug concentration range at which the grayscale value is half that of the DMSO-treated control bands.
DC50 values can be calculated using ImageJ software to measure grayscale values of Western blot bands from drug-treated samples. The concentration-response curve is fitted to estimate the drug concentration corresponding to half the grayscale value.
Target protein remaining (%) refers to the percentage of target protein remaining in cells after treatment with protein degrader compounds.
Calculation method for target protein remaining (%): Use ImageJ software to measure grayscale values of Western blot bands from drug (protein degrader)-treated samples. The grayscale value of drug-treated bands is divided by that of internal control protein bands, and the resulting quotient is normalized to obtain the relative percentage of remaining target protein after protein degrader treatment.
Target protein degradation rate (%)=1−target protein remaining (%).

| Compound | Degradation of substrate protein IRAK4 (substrate protein remaining %) |
| --- | --- |
| O=C1CCN(N2C(=O)c3ccc(N4CCC(N5CCC(CN6CCC(n7cc(NC(=O)c8coc(-c9ccnc(NCC(F)(F)F)c9)n8)c(C(F)F)n7)CC6)CC5)CC4)cc3C2=O)C(=O)N1 [GT-05144, N-(3-(difluoromethyl)-1-(1-((1′-(2-(2,4-dioxotetrahydropyrimidin-1(2H)-yl)-1,3-dioxoisoindolin-5-yl)-[1,4′-bipiperidin]-4-yl)methyl)piperidin-4-yl)-1H-pyrazol-4-yl)-2-(2-((2,2,2-trifluoroethyl)amino)pyridin-4-yl) oxazole-4-carboxamide] | A (0%≤substrate protein remaining %≤80%) |
| CC(C)(O)c1cc2nn(C3CCN(CC4CCN(c5ccc6c(c5)C(=O)N(N5CCC(=O)NC5=O)C6=O)CC4)CC3)cc2cc1NC(=O)c1cccc(C(F)(F)F)n1 [GT-05220, N-(2-(1-((1-(2-(2,4-dioxotetrahydropyrimidin-1(2H)-yl)-1,3-dioxoisoindolin-5-yl)piperidin-4-yl)methyl)piperidin-4-yl)-6-(2-hydroxypropan-2-yl)-2H-indazol-5-yl)-6-(trifluoromethyl) picolinamide] | A (0%≤substrate protein remaining %≤80%) |
| CC(C)(O)c1cc2nn(C3CCN(CC4CCN(c5cccc6c5C(=O)N(N5CCC(=O)NC5=O)C6=O)CC4)CC3)cc2cc1NC(=O)c1cccc(C(F)(F)F)n1 [GT-05221, N-(2-(1-((1-(2-(2,4-dioxotetrahydropyrimidin-1(2H)-yl)-1,3-dioxoisoindolin-4-yl)piperidin-4-yl)methyl)piperidin-4-yl)-6-(2-hydroxypropan-2-yl)-2H-indazol-5-yl)-6-(trifluoromethyl) picolinamide] | A (0%≤substrate protein remaining %≤80%) |
| O=C1CCN(N2C(=O)c3ccc(N4C5CCC4CN(C[C@H]4CC[C@H](n6cc(NC(=O)c7cnn8ccc(N9C[C@H]%10C[C@@H]9CO%10)nc78)c(C(F)F)n6)CC4)C5)cc3C2=O)C(=O)N1 [GT-05240, 5-((1R,4R)-2-oxa-5-azabicyclo[2.2.1]heptan-5-yl)-N-(3-(difluoromethyl)-1-((1r,4R)-4-((8-(2-(2,4-dioxotetrahydropyrimidin-1(2H)-yl)-1,3-dioxoisoindolin-5-yl)-3,8-diazabicyclo[3.2.1]octan-3-yl)methyl)cyclohexyl)-1H-pyrazol-4-yl)pyrazolo[1,5-a]pyrimidine-3-carboxamide] | A (0%≤substrate protein remaining %≤80%) |
| O=C1CCN(N2C(=O)c3cccc(N4CCN(C[C@H]5CC[C@H](n6cc(NC(=O)c7cnn8ccc(N9C[C@H]%10C[C@@H]9CO%10)nc78)c(C(F)F)n6)CC5)CC4)c3C2=O)C(=O)N1 [GT-05241, 5-((1R,4R)-2-oxa-5-azabicyclo[2.2.1]heptan-5-yl)-N-(3-(difluoromethyl)-1-((1r,4R)-4-((4-(2-(2,4-dioxotetrahydropyrimidin-1(2H)-yl)-1,3-dioxoisoindolin-4-yl)piperazin-1-yl)methyl)cyclohexyl)-1H-pyrazol-4-yl)pyrazolo[1,5-a]pyrimidine-3-carboxamide] | A (0%≤substrate protein remaining %≤80%) |
| CC(C)(O)c1cc2nn(C3CCN(CC4CCN(C5CCN(c6ccc7c(c6)C(=O)N(N6CCC(=O)NC6=O)C7=O)CC5)CC4)CC3)cc2cc1NC(=O)c1cccc(C(F)(F)F)n1 [GT-05290, N-(2-(1-((1′-(2-(2,4-dioxotetrahydropyrimidin-1(2H)-yl)-1,3-dioxoisoindolin-5-yl)-[1,4′-bipiperidin]-4-yl)methyl)piperidin-4-yl)-6-(2-hydroxypropan-2-yl)-2H-indazol-5-yl)-6-(trifluoromethyl) picolinamide] | A (0%≤substrate protein remaining %≤80%) |
